Assay results published in ChEMBL document CHEMBL2384960, “Anti-inflammatory secondary metabolites from the leaves of Rosa laevigata” (Bioorg Med Chem, 2013).
Active and inactive are the calls of the source. The calls are words filed in the database; no cut-off is given here.

Key:
RAW264.7 [1] = assay: Antiinflammatory activity in mouse RAW264.7 cells assessed as inhibition of LPS-induced IL-10 release incubated for 4 hrs prior to LPS challenge measured after 24 hrs by ELISA; assay type: functional, cell-based
[2] = (§1) Inhibition of LPS-induced NF-kappaB activation in HEK293 cells incubated for 4 hrs prior to LPS challenge measured after 48 hrs by luciferase reporter gene assay; assay type: cell-based; details: Homo sapiens
HEK293 = assay: as §1; assay type: cell-based; details: Homo sapiens
RAW264.7 [3] = assay: Antiinflammatory activity in mouse RAW264.7 cells assessed as inhibition of LPS-induced IL-10 release at 0.5 to 100 ug/ml incubated for 4 hrs prior to LPS challenge measured after 24 hrs by ELISA; assay type: functional, cell-based
RAW264.7 [4] = assay: Antiinflammatory activity in mouse RAW264.7 cells assessed as inhibition of LPS-induced IL-6 release at 0.5 to 100 ug/ml incubated for 4 hrs prior to LPS challenge measured after 24 hrs by ELISA; assay type: functional, cell-based
RAW264.7 [5] = assay: Antiinflammatory activity in mouse RAW264.7 cells assessed as inhibition of LPS-induced IL-6 release incubated for 4 hrs prior to LPS challenge measured after 24 hrs by ELISA; assay type: functional, cell-based
RAW264.7 [6] = assay: Cytotoxicity against mouse RAW264.7 cells up to 50 ug/ml after 24 hrs by MTT assay in presence of LPS; assay type: cell-based; details: raw264.7, 24 h
RAW264.7 [7] = assay: Antiinflammatory activity in mouse RAW264.7 cells assessed as inhibition of LPS-induced IL-1beta release at 0.5 to 100 ug/ml incubated for 4 hrs prior to LPS challenge measured after 24 hrs by ELISA; assay type: functional, cell-based
RAW264.7 [8] = assay: Antiinflammatory activity in mouse RAW264.7 cells assessed as inhibition of LPS-induced TNF-alpha release incubated for 4 hrs prior to LPS challenge measured after 24 hrs by ELISA; assay type: functional, cell-based
RAW264.7 [9] = assay: Antiinflammatory activity in mouse RAW264.7 cells assessed as inhibition of LPS-induced IL-1beta release incubated for 4 hrs prior to LPS challenge measured after 24 hrs by ELISA; assay type: functional, cell-based
RAW264.7 [10] = assay: Antiinflammatory activity in mouse RAW264.7 cells assessed as inhibition of LPS-induced TNF-alpha release at 0.5 to 100 ug/ml incubated for 4 hrs prior to LPS challenge measured after 24 hrs by ELISA; assay type: functional, cell-based

Row | SMILES | IC50 (RAW264.7 [1]) [µM] | IC50 [2] [µM] | inhibition (HEK293) | inhibition (RAW264.7 [3]) | inhibition (RAW264.7 [4]) | IC50 (RAW264.7 [5]) [µM] | Activity (RAW264.7 [6]) | inhibition (RAW264.7 [7]) | IC50 (RAW264.7 [8]) [µM] | IC50 (RAW264.7 [9]) [µM] | inhibition (RAW264.7 [10])
1 | C[C@@H]1CC[C@]2(C(=O)O)CC[C@]3(C)C(=CC[C@@H]4[C@@]5(C)C[C@@H](O)[C@@H](O)[C@@](C)(CO)[C@@H]5CC[C@]43C)[C@@H]2[C@]1(C)O | 10.4 | 23.2 | Dose-dependent effect | Active | Active | 8.04 | Non-toxic | Active | 14.3 | 8.53 | Active
2 | C[C@]1(CO)CC[C@]2(C(=O)O[C@@H]3O[C@H](CO)[C@@H](O)[C@H](O)[C@H]3O)CC[C@]3(C)C(=C2C1)CC[C@@H]1[C@@]2(C)C[C@@H](O)[C@H](O)[C@@](C)(CO)[C@@H]2CC[C@]13C |  | 65.6 | Dose-dependent effect | Active | Active |  | Non-toxic | Active |  |  | Active
3 | C[C@@H]1CC[C@]2(C(=O)O)CC[C@]3(C)C(=CC[C@@H]4[C@@]5(C)C[C@@H](O)[C@@H](O)C(C)(C)[C@@H]5CC[C@]43C)[C@@H]2[C@]1(C)O [EUSCAPHIC ACID] |  | 175 | Dose-dependent effect |  |  |  | Non-toxic |  |  |  | 
4 | C[C@@H]1CC[C@]2(C(=O)O)CC[C@]3(C)C(=CC[C@@H]4[C@@]5(C)C[C@@H](O)[C@H](O)[C@@](C)(CO)[C@@H]5CC[C@]43C)[C@@H]2[C@]1(C)O |  | 79 | Dose-dependent effect | Active | Active |  | Non-toxic | Active |  |  | Active
